Data reported in patent publication US7511041B2, “Fused azole-pyrimidine derivatives” (Bayer Pharmaceuticals Corporation, priority 2002, dated 2009).
Read-outs that look alike come from different tables or passages of the source.

Key:
[1] = biological target: T1, Recombinant human PI3Kγ (full length human PI3K p110γ) (Homo sapiens, UniProt P48736); assay: Kinase assay of PI3Kγ (solid-phase lipid kinase assay); format: biochemical
T1 construct: full length human PI3K p110γ fused with a His6-tag at the C-terminus; His6 (C); purchased ALEXIS BIOCHEMICALS #201-055-C010; host or cells: S. frugiperda 9 insect cells
Description: [Determination of IC50 Values of Compounds in Kinase Assay of PI3Kγ]
Chemicals and Assay Materials
LABORATORIES (Toronto, Canada). Recombinant human PI3Kγ (full length human PI3K p110γ fused with a His6-tag at the C-terminus expressed in S. frugiperda 9 insect cells) was obtained from ALEXIS BIOCHEMICALS (#201-055-C010; San Diego, Calif.). […] BIOTECH (Buckinghamshire, UK) and ROCHE DIAGNOSTICS (Mannheim, Germany), respectively. Scintillation cocktails and MicroScint PS™ were purchased from PACKARD (Meriden, Conn.). Maxisorp™ plates were purchased from NALGE NUNC INTERNATIONAL K.K. (Tokyo, Japan). All other chemicals not further specified were from WAKO PURE CHEMICALS (Osaka, Japan).
Solid-Phase Lipid Kinase Assay
The plates were subsequently air-dried by incubation for at least 2 hours in a fume hood. The reaction was set up by mixing 25 μl/well of assay buffer 2× (100 mM MOPSO/NaOH, 0.2 M NaCl, pH 7.0, 8 mM MgCl2, 2 mg/ml BSA (fatty acid-free)) and 50 ng/well PI3Kγ in the lipid pre-coated plate and 10× test compounds were added in 2% DMSO. The reaction was started by adding 20 μl/well of ATP mix (final 10 μM ATP; 0.05 μCi/well [γ^33P]ATP). After incubation at RT for 2 hours, the reaction was terminated by adding 50 μl/well stop solution (50 mM EDTA, pH 8.0). The plate was then washed twice with Tris-buffered saline (TBS, pH 7.4). MicroScint PS™ (PACKARD) scintillation mix was added at 100 μl/well, and radioactivity was counted by using a TopCount™ (PACKARD) scintillation counter.
The inhibition percent at each concentration of compound was calculated, and IC50 values were determined from the inhibition of curve.

[2] = in vitro PI3K-γ inhibitory activity, class symbols A-D, read-out: in vitro PI3K-gamma
[3] = in vitro PI3K-γ inhibitory activity, class symbols, read-out: in vitro PI3K-gamma
[4] = Table 1, isozyme not given, read-out: in vitro

T1 sequence (P48736 whole entry, the tested form may be a part): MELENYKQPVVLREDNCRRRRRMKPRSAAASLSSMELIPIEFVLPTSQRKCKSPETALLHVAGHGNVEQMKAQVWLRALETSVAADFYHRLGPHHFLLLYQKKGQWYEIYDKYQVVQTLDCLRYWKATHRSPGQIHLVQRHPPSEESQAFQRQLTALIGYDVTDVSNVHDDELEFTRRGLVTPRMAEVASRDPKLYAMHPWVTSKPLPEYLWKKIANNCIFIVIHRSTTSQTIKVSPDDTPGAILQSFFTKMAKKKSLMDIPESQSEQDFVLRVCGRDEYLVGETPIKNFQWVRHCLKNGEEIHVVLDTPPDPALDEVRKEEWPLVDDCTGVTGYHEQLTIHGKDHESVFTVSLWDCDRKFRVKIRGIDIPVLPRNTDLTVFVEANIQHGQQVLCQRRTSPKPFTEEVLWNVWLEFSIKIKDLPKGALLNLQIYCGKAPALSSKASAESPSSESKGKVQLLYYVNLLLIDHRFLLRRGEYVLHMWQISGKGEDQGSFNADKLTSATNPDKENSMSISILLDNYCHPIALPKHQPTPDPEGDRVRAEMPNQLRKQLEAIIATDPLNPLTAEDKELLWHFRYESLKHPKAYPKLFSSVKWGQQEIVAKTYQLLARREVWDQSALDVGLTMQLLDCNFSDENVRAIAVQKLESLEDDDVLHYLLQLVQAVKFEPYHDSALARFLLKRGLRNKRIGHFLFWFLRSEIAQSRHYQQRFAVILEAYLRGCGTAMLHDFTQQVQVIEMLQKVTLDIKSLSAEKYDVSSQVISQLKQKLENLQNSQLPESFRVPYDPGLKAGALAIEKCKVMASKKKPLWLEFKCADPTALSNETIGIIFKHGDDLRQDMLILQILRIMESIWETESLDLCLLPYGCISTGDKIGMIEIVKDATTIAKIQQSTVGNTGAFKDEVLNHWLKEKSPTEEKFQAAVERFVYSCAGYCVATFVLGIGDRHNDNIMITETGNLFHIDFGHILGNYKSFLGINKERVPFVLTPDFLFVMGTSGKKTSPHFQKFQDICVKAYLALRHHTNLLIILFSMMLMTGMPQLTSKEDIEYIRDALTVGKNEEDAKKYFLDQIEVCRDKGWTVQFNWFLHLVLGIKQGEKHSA

IC50 [1, 2] [nM] | melting point | IC50 [1, 3] [nM] | IC50 [1, 4] [nM] | SMILES
> 2000 | 204 °C (dec.) | – | – | C[C@H]1CN2C(NC(=O)c3cccnc3)=Nc3ccccc3C2=N1.Cl [Example 2-363]
500 to 2000 | 204 to 205 °C | – | – | O=C(NC1=Nc2ccccc2C2=NCCN12)c1ccccn1 [Example 2-276]
500 to 2000 | 194 °C (dec.) | – | – | O=C(NC1=Nc2ccccc2C2=NCCN12)C(Cl)(Cl)Cl [Example 2-332]
– | 246 to 247 °C | 100 to 500 | – | Cc1cc(C(=O)NC2=Nc3ccccc3C3=NCCN23)cnc1N [Example 2-159]
– | 288 °C | < 100 | – | Cl.O=C(NC1=Nc2cc(C(F)(F)F)ccc2C2=NCCN12)c1ccc2[nH]cnc2c1 [Example 2-37]
– | 288 °C | 100 to 500 | – | Cl.O=C(NC1=Nc2ccc(Br)cc2C2=NCCN12)c1ccc2[nH]cnc2c1 [Example 2-89]
– | 333 °C (dec.) | 100 to 500 | – | Cl.Cn1cnc2cc(C(=O)NC3=Nc4ccccc4C4=NCCN34)ccc21 [Example 2-167]
– | 252 to 256 °C | – | > 2000 | O/C(=C\C1=Nc2ccccc2C2=NCCN12)c1ccccc1O [Example 1-170]
– | 337 °C (dec.) | – | < 100 | O/C(=C\C1=Nc2cc(N3CCOCC3)ccc2C2=NCCN12)c1cncc(O)c1 [Example 1-98]
> 2000 | 288 to 289 °C | – | – | Cn1cc(C(=O)NC2=Nc3ccccc3C3=NCCN23)c2ccccc21 [Example 2-315]
500 to 2000 | 267 to 268 °C | – | – | O=C(NC1=Nc2ccccc2C2=NCCN12)c1cnccn1 [Example 2-292]
– | 183 to 184 °C | – | 100 to 500 | COc1c(OCCN(C)C)ccc2c1N=C(/C=C(\O)c1cccnc1)N1CCN=C21 [Example 1-19]
> 2000 | 277 °C (dec.) | – | – | Cc1cc(C(=O)NC2=Nc3ccccc3C3=NCCN23)cc(C)c1[N+](=O)[O-] [Example 2-222]
– | > 300 °C | – | 100 to 500 | CC(=O)Nc1ccc(/C(O)=C/C2=Nc3ccccc3C3=NCCN23)cc1 [Example 1-133]
– | 283 °C | < 100 | – | Cl.O=C(NC1=Nc2cc(N3CCOCC3)ccc2C2=NCCN12)c1cccnc1 [Example 2-8]
– | > 280 °C | 100 to 500 | – | CC(=O)Nc1ccc(C(=O)NC2=Nc3c(Cl)cccc3C3=NCCN23)cn1 [Example 2-104]
100 to 500 | 296 °C (dec.) | – | – | O=C(NC1=Nc2ccc(O)cc2C2=NCCN12)c1ccc2[nH]cnc2c1 [Example 2-212]
– | 269 to 270 °C | – | < 100 | COc1ccc2c(c1OC)N=C(/C=C(\O)c1cccnc1)N1CCN=C21 [Example 1-10]
– | 229 °C | 100 to 500 | – | O=C(NC1=Nc2cc(C(F)(F)F)ccc2C2=NCCN12)c1cccnc1 [Example 2-33]
> 2000 | 169 to 170 °C | – | – | CSc1ccc(C(=O)NC2=Nc3ccccc3C3=NCCN23)cc1 [Example 2-243]
– | 210 °C | 100 to 500 | – | O=C(NC1=Nc2ccc(Cl)cc2C2=NCCN12)c1cccnc1 [Example 2-84]
500 to 2000 | 311 °C (dec.) | – | – | CN(C)c1ccc(C(=O)NC2=Nc3ccccc3C3=NCCN23)cn1.Cl [Example 2-283]
– | 243 °C | 100 to 500 | – | O=C(NC1=Nc2cc(N3CCOCC3)ccc2C2=NCCN12)c1cccnc1 [Example 2-7]
– | > 290 °C | – | 100 to 500 | CC(=O)Nc1ccc(/C(O)=C/C2=Nc3c(C)cc(Br)cc3C3=NCCN23)cn1.Cl [Example 1-44]
> 2000 | 185 to 186 °C | – | – | Cc1ccc(C(=O)NC2=Nc3ccccc3C3=NCCN23)cc1 [Example 2-218]
– | 324 °C (dec.) | 100 to 500 | – | Cl.O=C(NC1=Nc2ccccc2C2=NCCN12)c1ccc(Cl)nc1 [Example 2-155]
– | 130 to 139 °C | – | 500 to 2000 | O/C(=C\C1=Nc2ccccc2C2=NCCN12)c1ccccc1 [Example 1-166]

IC50 [1, 2] [nM] | melting point | IC50 [1, 3] [nM] | IC50 [1, 4] [nM] | SMILES
500 to 2000 | 202 to 204 °C | – | – | O=C(NC1=Nc2ccccc2C2=NCCN12)c1ccccc1F [Example 2-224]
– | 134 to 138 °C | – | 500 to 2000 | CC(C)(C)/C(O)=C/C1=Nc2ccccc2C2=NCCN12 [Example 1-183]
– | 243 °C | 100 to 500 | – | O=C(NC1=Nc2c(F)cccc2C2=NCCN12)c1cccnc1 [Example 2-99]
– | 262 °C | – | 500 to 2000 | O=C(NCCc1ccc2c(n1)N=C(/C=C(\O)c1cccnc1)N1CCN=C21)N1CCOCC1 [Example 1-204]
– | 202 °C | – | 100 to 500 | O/C(=C\C1=Nc2ccccc2C2=NCCN12)c1cccnc1 [Example 1-134]
– | 275 °C | – | 100 to 500 | O/C(=C\C1=Nc2c(cccc2C(F)(F)F)C2=NCCN12)c1cccnc1 [Example 1-80]
– | 232 to 237 °C | – | < 100 | CNc1ccc(/C(O)=C/C2=Nc3ccccc3C3=NCCN23)cn1 [Example 1-139]
– | 269 °C (dec.) | – | < 100 | CC(=O)Nc1ccc(/C(O)=C/C2=Nc3cc(N4CCOCC4)ccc3C3=NCCN23)cn1 [Example 1-96]
– | 240 °C (dec.) | – | < 100 | COc1c(OCC(=O)O)ccc2c1N=C(/C=C(\O)c1cccnc1)N1CCN=C21.Cl [Example 1-22]
> 2000 | 147 to 148 °C | – | – | CC(C)(C)OC(=O)N1CCCC(C(=O)NC2=Nc3ccccc3C3=NCCN23)C1 (stereo not shown) [Example 2-338]
> 2000 | 250 to 253 °C | – | – | CC(C)n1c(C(F)(F)F)nc2cc(C(=O)NC3=Nc4ccccc4C4=NCCN34)ccc21 [Example 2-309]
< 100 | 240 °C (dec.) | – | – | COc1ccc2c(c1OC)N=C(NC(=O)c1cncc(O)c1)N1CCN=C21.Cl [Example 2-368]
– | 284 to 285 °C | – | < 100 | COc1c(OCC#N)ccc2c1N=C(/C=C(\O)c1cccnc1)N1CCN=C21 [Example 1-195]
– | 200 to 204 °C | – | < 100 | COc1cc2c(cc1OC)C1=NCCN1C(/C=C(\O)c1ccc(C)nc1)=N2 [Example 1-49]
– | 198 to 199 °C | 100 to 500 | – | O=C(NC1=Nc2ccccc2C2=NCCN12)c1sccc1Cl [Example 2-180]
– | 210 °C | < 100 | – | Cc1ccc2c(c1)C1=NCCN1C(NC(=O)c1cccnc1)=N2 [Example 2-90]
– | 120 °C (dec.) | – | 100 to 500 | O/C(=C\C1=Nc2c(Br)cccc2C2=NCCN12)c1cccnc1 [Example 1-73]
– | 199 °C | – | 100 to 500 | COc1ccc2c(c1)C1=NCCN1C(/C=C(\O)c1cccnc1)=N2 [Example 1-126]
– | 197 °C | – | 100 to 500 | CCCNc1ccc(/C(O)=C/C2=Nc3ccccc3C3=NCCN23)cn1 [Example 1-140]
– | 212 °C | – | 100 to 500 | Cc1ccc2c(c1)C1=NCCN1C(/C=C(\O)c1cccnc1)=N2 [Example 1-131]
– | 263 °C | < 100 | – | Cl.O=C(NC1=Nc2c(cccc2C(F)(F)F)C2=NCCN12)c1cccnc1 [Example 2-111]
500 to 2000 | 275 °C | – | – | Cl.O=C(NC1=Nc2ccc(Br)cc2C2=NCCN12)c1cccs1 [Example 2-352]
– | 287 °C | < 100 | – | COc1cccc2c1N=C(NC(=O)c1ccc3[nH]cnc3c1)N1CCN=C21 [Example 2-124]
– | 210 °C (dec.) | – | 100 to 500 | O/C(=C\C1=Nc2c(Cl)cccc2C2=NCCN12)c1cccnc1 [Example 1-72]
– | 198 to 205 °C (dec.) | 100 to 500 | – | COc1ccc2c(c1)N=C(NC(=O)c1ccc(NC(C)=O)nc1)N1CCN=C21.Cl [Example 2-22]
– | 286 °C | < 100 | – | O=C(NC1=Nc2c(cccc2C(F)(F)F)C2=NCCN12)c1ccc2[nH]cnc2c1 [Example 2-112]
500 to 2000 | 228 °C | – | – | O=C(NC1=Nc2cc(Cl)ccc2C2=NCCN12)c1cccs1 [Example 2-354]

SMILES | IC50 [1, 2] [nM] | melting point | IC50 [1, 3] [nM] | IC50 [1, 4] [nM]
O=C(NC1=Nc2ccccc2C2=NCCN12)c1ccccc1[N+](=O)[O-].O=C(O)C(F)(F)F [Example 2-251] | > 2000 | 198 to 200 °C | – | –
Cc1cccc(C(=O)NC2=Nc3ccccc3C3=NCCN23)c1.O=C(O)C(F)(F)F [Example 2-217] | 100 to 500 | 239 to 241 °C | – | –
